From patent US10407409B2, “6-(5-hydroxy-1H-pyrazol-1-yl)nicotinamide inhibitors of PHD” (Takeda Pharmaceutical Company Limited, priority 2013, dated 2019) come the findings set out here.

In assay [1] the target is PHD2 enzyme (residues 181-417) (Homo sapiens (Human), UniProt Q9GZT9). Put plainly: Inhibition of PHD enzyme (LC/MS peptide hydroxylation assay). Format: biochemical. Particulars: PHD2 (residues 181-417) 5 nM, 60 min pre-incubation; -log(IC50), IC50 molar. A digest of the protocol: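 Hydroxylated peptide quantified by LC/MS after 60 min turnover of 1 uM biotinylated peptide with 2 uM 2-oxoglutarate and 1 mM ascorbate, stopped by excess tight-binding inhibitor. Beforehand, 5 nM enzyme and compound were preincubated 60 min at RT, pH 7.3 HEPES/KCl/TCEP/FeCl2/BSA buffer. Values as pIC50 (−log molar IC50).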

In assay [2] the test system is HIF1a protein in H9c2 rat cardiomyocytes. Put plainly: Cell-based HIF-alpha stabilization assay (inhibition of PHD in cells). Particulars: Rattus norvegicus, H9c2, 24 h, 24 hrs compound incubation, HIF1a protein by ELISA, read-out: Inhibition of PHD in cells (pEC50) (converted). A digest of the protocol: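 HIF1a stabilization was measured by ELISA on lysates of H9c2 rat cardiomyocytes after 24 h exposure to 11 serial compound concentrations, expressed relative to the desferrioxamine maximum. Curve fits gave EC50. EC50pos denotes the concentration producing half the desferrioxamine maximal response.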
A general note: In an ELISA, binding on a coated surface is turned into a signal by an enzyme label.

Molecules are shown by their SMILES.

Sequence of PHD2 enzyme (residues 181-417) (Q9GZT9 181-417): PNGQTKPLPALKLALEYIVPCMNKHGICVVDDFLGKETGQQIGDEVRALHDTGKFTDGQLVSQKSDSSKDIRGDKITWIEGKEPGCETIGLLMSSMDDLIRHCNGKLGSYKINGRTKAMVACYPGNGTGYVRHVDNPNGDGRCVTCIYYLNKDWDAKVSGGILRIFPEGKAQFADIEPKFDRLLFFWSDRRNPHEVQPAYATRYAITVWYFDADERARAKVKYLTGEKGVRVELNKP

As to `Cc1cc(C#N)ccc1-c1cnn(-c2ccc(C(=O)N(C)C3CN(C)C3)cn2)c1O` [Example 432, 6-(4-(4-cyano-2-methylphenyl)-5-hydroxy-1H-pyrazol-1-yl)-N-methyl-N-(1-methylazetidin-3-yl)nicotinamide], the “PHD Inhibition (pIC50)” value in assay [1] is 8.02. Also, in assay [2], the EC50 is 741 nM.
The matching figures for `CCN1CCN(C(=O)c2ccc(-n3ncc(-c4ccc(C#N)cc4C)c3O)nc2)C[C@H]1C` [Example 388, (R)-4-(1-(5-(4-ethyl-3-methylpiperazine-1-carbonyl)pyridin-2-yl)-5-hydroxy-1H-pyrazol-4-yl)-3-methylbenzonitrile]: 8.25 and 513 nM.
The like results for `COc1cc(-c2cnn(-c3ccc(C(=O)NCCC4CCCCO4)cn3)c2O)ccn1` (stereo not drawn) [Example 207, 6-(5-hydroxy-4-(2-methoxypyridin-4-yl)-1H-pyrazol-1-yl)-N-(2-(tetrahydro-2H-pyran-2-yl)ethyl)nicotinamide] were, in that order, 8.3 and 123 nM.
`Cc1c(-c2cnn(-c3ccc(C(=O)N4CCC[C@H](N(C)C)C4)cn3)c2O)ccc(C#N)c1F` [Example 320, (S)-4-(1-(5-(3-(dimethylamino)piperidine-1-carbonyl)pyridin-2-yl)-5-hydroxy-1H-pyrazol-4-yl)-2-fluoro-3-methylbenzonitrile]: in assay [1], the “PHD Inhibition (pIC50)” value is 8.17. Besides, the EC50 in assay [2] is 741 nM.
For `CCOCCCNC(=O)c1ccc(-n2ncc(-c3ccnc(OC)c3)c2O)nc1` [Example 12, N-(3-ethoxypropyl)-6-(5-hydroxy-4-(2-methoxypyridin-4-yl)-1H-pyrazol-1-yl)nicotinamide], the “PHD Inhibition (pIC50)” value in assay [1] is recorded as 7.44. In assay [2], the EC50 is 661 nM.
Turning to `Cc1cc(C#N)ccc1-c1cnn(-c2ccc(C(=O)N3CC(N(C)C)C3)cn2)c1O` [Example 345, 4-(1-(5-(3-(dimethylamino)azetidine-1-carbonyl)pyridin-2-yl)-5-hydroxy-1H-pyrazol-4-yl)-3-methylbenzonitrile], the “PHD Inhibition (pIC50)” value in assay [1] amounted to 8.35. Moreover, the EC50 in assay [2] is 363 nM.
For the molecule `N#Cc1ccc(-c2cnn(-c3ccc(C(=O)NC4CCCCC4)cn3)c2O)cc1` [Example 75, 6-(4-(4-cyanophenyl)-5-hydroxy-1H-pyrazol-1-yl)-N-cyclohexylnicotinamide], the “PHD Inhibition (pIC50)” value in assay [1] is listed as 7.28. Also, in assay [2], the EC50 is 1700 nM.
In the case of `COCCCNC(=O)c1ccc(-n2ncc(-c3ccc(C#N)c(F)c3C)c2O)nc1` [Example 406, 6-(4-(4-cyano-3-fluoro-2-methylphenyl)-5-hydroxy-1H-pyrazol-1-yl)-N-(3-methoxypropyl)nicotinamide], in assay [1], the “PHD Inhibition (pIC50)” value was determined as 8.49. The EC50 in assay [2] is 191 nM.
The matching figures for `Cc1cc(C#N)ccc1-c1cnn(-c2ccc(C(=O)NC3CCN(C)CC3)cn2)c1O` [Example 100, 6-(4-(4-cyano-2-methylphenyl)-5-hydroxy-1H-pyrazol-1-yl)-N-(1-methylpiperidin-4-yl)nicotinamide]: 8.1 and 75.9 nM.
Turning to `CC(C)NC(=O)c1ccc(-n2ncc(-c3ccc(C#N)cc3)c2O)nc1` [Example 159, 6-(4-(4-cyanophenyl)-5-hydroxy-1H-pyrazol-1-yl)-N-isopropylnicotinamide], the “PHD Inhibition (pIC50)” value in assay [1] was determined as 7.15. In addition, the EC50 in assay [2] is 912 nM.
Turning to `COCCCNC(=O)c1ccc(-n2ncc(-c3ccc(C#N)cc3C3CC3)c2O)nc1` [Example 300, 6-(4-(4-cyano-2-cyclopropylphenyl)-5-hydroxy-1H-pyrazol-1-yl)-N-(3-methoxypropyl)nicotinamide], the “PHD Inhibition (pIC50)” value in assay [1] was found to be 7.99. Moreover, in assay [2], the EC50 was 17.4 nM.
`COc1cc(-c2cnn(-c3ccc(C(=O)N[C@H]4CC[C@H](O)CC4)cn3)c2O)ccn1` [Example 167, 6-(5-hydroxy-4-(2-methoxypyridin-4-yl)-1H-pyrazol-1-yl)-N-((1r,4r)-4-hydroxycyclohexyl)nicotinamide]: in assay [1], the “PHD Inhibition (pIC50)” value amounted to 7.46. Further, the EC50 in assay [2] was 282 nM.
As for `Cc1c(-c2cnn(-c3ccc(C(=O)N4CCC[C@H](N(C)CC(F)F)C4)cn3)c2O)ccc(C#N)c1F` [Example 333, (S)-4-(1-(5-(3-((2,2-difluoroethyl)(methyl)amino)piperidine-1-carbonyl)pyridin-2-yl)-5-hydroxy-1H-pyrazol-4-yl)-2-fluoro-3-methylbenzonitrile], the “PHD Inhibition (pIC50)” value in assay [1] was 8.55. The EC50 in assay [2] is 741 nM.
With `COC(C)CCNC(=O)c1ccc(-n2ncc(-c3ccc(C#N)cc3)c2O)nc1` (stereo not drawn) [Example 145, 6-(4-(4-cyanophenyl)-5-hydroxy-1H-pyrazol-1-yl)-N-(3-methoxybutyl)nicotinamide], in assay [1], the “PHD Inhibition (pIC50)” value was determined as 8.3. Further, in assay [2], the EC50 is 501 nM.
For the molecule `COc1cc(-c2cnn(-c3ccc(C(=O)N[C@H]4CC[C@@H](O)CC4)cn3)c2O)ccn1` [Example 166, 6-(5-hydroxy-4-(2-methoxypyridin-4-yl)-1H-pyrazol-1-yl)-N-((1s,4s)-4-hydroxycyclohexyl)nicotinamide], the “PHD Inhibition (pIC50)” value in assay [1] turned out to be 7.28. Also, the EC50 in assay [2] was 437 nM.
Take `Cc1c(-c2cnn(-c3ccc(C(=O)N4CCN(C(C)C)[C@H](C)C4)cn3)c2O)ccc(C#N)c1F` [Example 337, (R)-2-fluoro-4-(5-hydroxy-1-(5-(4-isopropyl-3-methylpiperazine-1-carbonyl)pyridin-2-yl)-1H-pyrazol-4-yl)-3-methylbenzonitrile]: the “PHD Inhibition (pIC50)” value in assay [1] stood at 8.36. In addition, in assay [2], the EC50 is 1350 nM.
On to `Cc1cc(C#N)ccc1-c1cnn(-c2ccc(C(=O)NC3CC4(COC4)C3)cn2)c1O` [Example 244, 6-(4-(4-cyano-2-methylphenyl)-5-hydroxy-1H-pyrazol-1-yl)-N-(2-oxaspiro[3.3]heptan-6-yl)nicotinamide], for which the “PHD Inhibition (pIC50)” value in assay [1] is recorded as 8.4. The EC50 in assay [2] was 240 nM.
On to `Cc1c(-c2cnn(-c3ccc(C(=O)N4CC(N(C)C)C4)cn3)c2O)ccc(C#N)c1F` [Example 321, 4-(1-(5-(3-(dimethylamino)azetidine-1-carbonyl)pyridin-2-yl)-5-hydroxy-1H-pyrazol-4-yl)-2-fluoro-3-methylbenzonitrile], for which the “PHD Inhibition (pIC50)” value in assay [1] was determined as 8.40. The EC50 in assay [2] is 589 nM.
In the case of `Cc1cc(-n2ncc(-c3ccc(C#N)cc3)c2O)ncc1C(=O)N1CCN(C)CC1` [Example 430, 4-(5-hydroxy-1-(4-methyl-5-(4-methylpiperazine-1-carbonyl)pyridin-2-yl)-1H-pyrazol-4-yl)benzonitrile], in assay [1], the “PHD Inhibition (pIC50)” value worked out at 7.44. In assay [2], the EC50 is 8510 nM.
As for `C[C@H]1CC[C@H](NC(=O)c2ccc(-n3ncc(-c4ccc(C#N)cc4)c3O)nc2)CC1` [Example 144, 6-(4-(4-cyanophenyl)-5-hydroxy-1H-pyrazol-1-yl)-N-((1r,4r)-4-methylcyclohexyl)nicotinamide], the “PHD Inhibition (pIC50)” value in assay [1] stood at 8.1. In assay [2], the EC50 was 1700 nM.
Take `COCCC1(NC(=O)c2ccc(-n3ncc(-c4ccc(C#N)cc4)c3O)nc2)CCCC1` [Example 354, 6-(4-(4-cyanophenyl)-5-hydroxy-1H-pyrazol-1-yl)-N-(1-(2-methoxyethyl)cyclopentyl)nicotinamide]: the “PHD Inhibition (pIC50)” value in assay [1] is on record as 8.36. The EC50 in assay [2] was 1580 nM.
As to `N#Cc1ccc(-c2cnn(-c3ccc(C(=O)NCCC4CCCOC4)cn3)c2O)cc1` (stereo not drawn) [Example 178, 6-(4-(4-cyanophenyl)-5-hydroxy-1H-pyrazol-1-yl)-N-(2-(tetrahydro-2H-pyran-3-yl)ethyl)nicotinamide], the “PHD Inhibition (pIC50)” value in assay [1] is listed as 7.63. In addition, in assay [2], the EC50 is 282 nM.
`Cc1cc(C#N)ccc1-c1cnn(-c2ccc(C(=O)N3CCC[C@H](N(C)C)C3)cn2)c1O` [Example 376, (S)-4-(1-(5-(3-(dimethylamino)piperidine-1-carbonyl)pyridin-2-yl)-5-hydroxy-1H-pyrazol-4-yl)-3-methylbenzonitrile]: the “PHD Inhibition (pIC50)” value in assay [1] was determined as 7.61. For the same molecule, in assay [2], the EC50 is 891 nM.
As for `COCC1(CNC(=O)c2ccc(-n3ncc(-c4ccnc(OC)c4)c3O)nc2)CCCC1` [Example 47, 6-(5-hydroxy-4-(2-methoxypyridin-4-yl)-1H-pyrazol-1-yl)-N-((1-(methoxymethyl)cyclopentyl)methyl)nicotinamide], the “PHD Inhibition (pIC50)” value in assay [1] was 8.4. In addition, the EC50 in assay [2] is 355 nM.
Take `COc1cc(-c2cnn(-c3ccc(C(=O)NC(C)(C)CN(C)C)cn3)c2O)ccn1` [Example 51, N-(1-(dimethylamino)-2-methylpropan-2-yl)-6-(5-hydroxy-4-(2-methoxypyridin-4-yl)-1H-pyrazol-1-yl)nicotinamide]: the “PHD Inhibition (pIC50)” value in assay [1] came out at 7.3. For the same molecule, the EC50 in assay [2] was 1820 nM.
For `COCCCCNC(=O)c1ccc(-n2ncc(-c3ccc(C#N)cc3C)c2O)nc1` [Example 179, 6-(4-(4-cyano-2-methylphenyl)-5-hydroxy-1H-pyrazol-1-yl)-N-(4-methoxybutyl)nicotinamide], in assay [1], the “PHD Inhibition (pIC50)” value stood at 8.3. Also, the EC50 in assay [2] is 123 nM.
The matching figures for `CCN1CCN(C(=O)c2ccc(-n3ncc(-c4ccc(C#N)cc4C)c3O)nc2)CC1(C)C` [Example 378, 4-(1-(5-(4-ethyl-3,3-dimethylpiperazine-1-carbonyl)pyridin-2-yl)-5-hydroxy-1H-pyrazol-4-yl)-3-methylbenzonitrile]: 8.21 and 1290 nM.
